From US5075298A, “Cephalosporins” (Roussel Uclaf, priority 1987, dated 1991)
Structures can show the parent of a compound that is named as a salt.

Key:
Assay in all cases: In vitro activity, dilution method in a liquid medium (MIC)
Assay type in all cases: cell-based
[1] = tested on: Staphylococcus aureus 285; details: 24 H
Experimental: (§1) In vitro activity, dilution method in a liquid medium.
(§2) A series of tubes were prepared in which an equal quantity of sterile nutritive medium was distributed. Increasing quantities of the product under test were distributed into each tube and then each tube was seeded with a bacterial strain. After incubation for 24 or 48 hours in an incubator at 37° C., the inhibition of the growth was estimated by transillumination, which enabled the minimal inhibiting concentrations (M.I.C.), expressed in micrograms/ml to be determined.

Escherichia Coli O 75 = details: COLIO75, 24 H
Experimental: as §1, §2

Serratia RG 2 532 = details: RG2532, 24 H
Experimental: as §1, §2

Escherichia Coli T E M = details: 24 H
Experimental: as §1, §2

[2] = tested on: Proteus vulgaris (indol) A 232; details: 24 H
Experimental: as §1, §2

Escherichia Coli DC 2 = details: COLIDC2, 24 H
Experimental: as §1, §2

[3] = tested on: Saimonella typhimurium MZ 11; details: 24 H
Experimental: as §1, §2

[4] = tested on: Proteus mirabilis (indol-) A 235; details: 24 H
Experimental: as §1, §2

[5] = tested on: Enterobacter cloacae 1 321 E; details: 1321E, 24 H
Experimental: as §1, §2

Escherichia Coli 1507 E = details: COLI1507E, 24 H
Experimental: as §1, §2

[6] = tested on: Streptococcus pyogenes A 561; details: A561, 24 H
Experimental: as §1, §2

Providencia Du 48 = details: DU48, 24 H
Experimental: as §1, §2

Escherichia Coli UC 1894 = details: UC1894, 24 H
Experimental: as §1, §2

[7] = tested on: Streptococcus pyogenes 77 A; details: 24 H
Experimental: as §1, §2

[8] = tested on: Kiebsiella pneumoniae Exp. 52 145; details: 24 H
Experimental: as §1, §2

[9] = tested on: Staphylococcus aureus Exp. n° 54 146; details: 24 H
Experimental: as §1, §2

[10] = tested on: Kiebsiella aerogenes 1 522 E; details: 24 H
Experimental: as §1, §2

[11] = tested on: Pseudomonas aeruginosa 1771 m; details: 24 H
Experimental: as §1, §2

Escherichia Coli DC 0 = details: COLIDC0, 24 H
Experimental: as §1, §2

CO/N=C(\C(=O)N[C@@H]1C(=O)N2C(C(=O)O)=C(/C=C/C[n+]3cccc4ccsc43)CS[C@H]12)c1csc(N)n1 [ex. 1]
MIC [1]: 0.15 mg/L | MIC (Escherichia Coli O 75): 0.02 mg/L | MIC (Serratia RG 2 532): 0.15 mg/L | MIC (Escherichia Coli T E M): 0.04 mg/L | MIC [2]: 0.3 mg/L | MIC (Escherichia Coli DC 2): 0.01 mg/L | MIC [3]: 0.04 mg/L | MIC [4]: 0.04 mg/L | MIC [5]: 0.04 mg/L | MIC (Escherichia Coli 1507 E): 0.01 mg/L | MIC [6]: ≤ 0.01 mg/L | MIC (Providencia Du 48): 0.3 mg/L | MIC (Escherichia Coli UC 1894): ≤ 0.01 mg/L | MIC [7]: ≤ 0.01 mg/L | MIC [8]: 0.08 mg/L | MIC [9]: 0.3 mg/L | MIC [10]: 0.15 mg/L | MIC [11]: 0.6 mg/L | MIC (Escherichia Coli DC 0): 0.04 mg/L

Nc1nc(/C(=N/OC(F)F)C(=O)N[C@@H]2C(=O)N3C(C(=O)[O-])=C(/C=C/C[n+]4cccc5ccsc54)CS[C@H]23)cs1 [ex. 2, (6R,7R)-7-[[(2-amino-4-thiazolyl) [(Z)]-[(difluoromethoxy)imino]]acetamido]-8-oxo-3 [(E) 3-[7-[thieno[2,3-b]pyridino]-1-propenyl]-5-thia-1-azabicyclo[4,2,0]oct-2-en-2-carboxylate (internal salt)]
MIC [1]: 5 mg/L | MIC (Escherichia Coli O 75): 1.2 mg/L | MIC (Serratia RG 2 532): 10 mg/L | MIC (Escherichia Coli T E M): 0.6 mg/L | MIC [2]: 0.3 mg/L | MIC (Escherichia Coli DC 2): 0.6 mg/L | MIC [3]: 0.3 mg/L | MIC [4]: 0.08 mg/L | MIC [5]: 0.3 mg/L | MIC (Escherichia Coli 1507 E): 0.15 mg/L | MIC [6]: ≤ 0.01 mg/L | MIC (Providencia Du 48): 2.5 mg/L | MIC (Escherichia Coli UC 1894): 0.04 mg/L | MIC [7]: ≤ 0.01 mg/L | MIC [8]: 0.6 mg/L | MIC [9]: 5 mg/L | MIC [10]: 0.6 mg/L | MIC [11]: 1.2 mg/L | MIC (Escherichia Coli DC 0): 2.5 mg/L

CO/N=C(\C(=O)N[C@@H]1C(=O)N2C(C(=O)[O-])=C(/C=C/C[n+]3cccc4ccsc43)CS[C@H]12)c1csc(N)n1 [ex. 3, (6R,7R)-7-[[(2-amino-4-thiazolyl)-[(Z)[methoxyimino]]-acetamido]-8-oxo-3-[(E)-3-[7-[thieno[2,3-b]pyridinio]-1-propenyl]-5-thia-1-azabicyclo[4,2,0]oct-2-en-2-carboxylate (internal salt)]
MIC [1]: 2.5 mg/L | MIC (Escherichia Coli O 75): 0.3 mg/L | MIC (Serratia RG 2 532): 5 mg/L | MIC (Escherichia Coli T E M): 0.6 mg/L | MIC [2]: 0.2 mg/L | MIC (Escherichia Coli DC 2): 0.08 mg/L | MIC [3]: 0.3 mg/L | MIC [4]: 0.04 mg/L | MIC [5]: 0.6 mg/L | MIC (Escherichia Coli 1507 E): 0.04 mg/L | MIC [6]: ≤ 0.01 mg/L | MIC (Providencia Du 48): 1.2 mg/L | MIC (Escherichia Coli UC 1894): 0.08 mg/L | MIC [7]: ≤ 0.01 mg/L | MIC [8]: 1.2 mg/L | MIC [9]: 2.5 mg/L | MIC [10]: 0.6 mg/L | MIC [11]: 2.5 mg/L | MIC (Escherichia Coli DC 0): 1.2 mg/L
